What all share (assay type): functional
In test [1] the test system is Escherichia coli. Briefly: Antibacterial activity against Escherichia coli infected in mouse.
The test system of test [2] is Escherichia coli. Briefly: Antibacterial activity against Escherichia coli.
The subject of test [3] is Pseudomonas aeruginosa. Briefly: Antibacterial activity against Pseudomonas aeruginosa.
Test [4] relates to Enterococcus faecalis. Briefly: Antibacterial activity against Enterococcus faecalis.
In test [5] the test system is Staphylococcus aureus. Briefly: Antibacterial activity against Staphylococcus aureus ATCC 25923.
For test [6], the system named is Staphylococcus aureus. Briefly: Antibacterial activity against Staphylococcus aureus ATCC 29213.
The subject of test [7] is Staphylococcus aureus. Briefly: Antibacterial activity against methicillin-resistant Staphylococcus aureus N315.
In test [8] the test system is Pseudomonas aeruginosa. Briefly: Antibacterial activity against Pseudomonas aeruginosa ATCC 27853.
Test [9] concerns Acinetobacter baumannii. Briefly: Antibacterial activity against Acinetobacter baumannii.
Test [10] deals with Escherichia coli. Briefly: Antibacterial activity against Escherichia coli ATCC 25922.
Test [11] deals with Klebsiella pneumoniae. Briefly: Antibacterial activity against Klebsiella pneumoniae.
Test [12] concerns Staphylococcus aureus. Briefly: Antibacterial activity against Staphylococcus aureus.
In test [13] the test system is Bacillus subtilis. Briefly: Antibacterial activity against Bacillus subtilis.
For test [14], the system named is Candida albicans. Briefly: Antifungal activity against Candida albicans.

The values that follow come from ChEMBL document CHEMBL4304773, “Nitroimidazole-containing compounds and their antibacterial and antitubercular activities” (2019).

Structures are written as SMILES. ≈ marks a conversion by molar mass, not a printed value.

Turning to `CCn1cc(C(=O)OC)c(=O)c2cc(F)c(N3CCN(CCn4c([N+](=O)[O-])cnc4C)CC3)nc21`, the ED50 – broadly, the dose at which the effect has come halfway, by size or by number of responders – in test [1] fell in the range of 3.5 to 13.2 mg/kg.
In the case of `CCOC(=O)c1cn(C2CC2)c2cc(N3CCN(CCn4c([N+](=O)[O-])cnc4C)CC3)c(F)cc2c1=O`, the ED50 in [1] is 3.5 to 13.2 mg/kg.
On to `CCCCN1CCN(c2ccc3c4c(cccc24)C(=O)N(CC(O)Cn2c([N+](=O)[O-])cnc2C)C3=O)CC1` (stereo unspecified), for which the minimal inhibitory concentration (MIC) (usually the lowest concentration that inhibits growth of the organism) in test [2] fell in the range of 13 to 1020 µM; in [3], 13 to 1020 µM; in test [4], 13 to 1020 µM (≈ 6.77 to 531 µg/mL); in [5], 13 to 1020 µM (≈ 6.77 to 531 µg/mL); in test [6] it was 13 to 1020 µM (≈ 6.77 to 531 µg/mL); in [7], 13 to 1020 µM (≈ 6.77 to 531 µg/mL). In addition, the MIC in [8], in test [9], in test [10] and in test [11] was 13 to 1020 µM (≈ 6.77 to 531 µg/mL) each time.
For `CCn1cc(C(=O)O)c(=O)c2cc(F)c(N3CCN(CCn4c([N+](=O)[O-])cnc4C)CC3)nc21`, the ED50 in test [1] is 3.5 to 13.2 mg/kg.
For `COC(=O)c1cn(C2CC2)c2cc(N3CCN(CCn4c([N+](=O)[O-])cnc4C)CC3)c(F)cc2c1=O`, in test [1], the ED50 lay in the range of 3.5 to 13.2 mg/kg.
With `NC1CCN(c2c(F)cc3c(=O)c(C(=O)O)cn(C4CC4)c3c2Cl)C1` (stereo unspecified) [CLINAFLOXACIN], the MIC in [2] fell in the range of 5 to 88 µM; in test [3] it was 5 to 88 µM; in [4] it was 5 to 88 µM (≈ 1.83 to 32.2 µg/mL); in [5], 5 to 88 µM (≈ 1.83 to 32.2 µg/mL); in test [6] it was 5 to 88 µM (≈ 1.83 to 32.2 µg/mL); in test [7], 5 to 88 µM (≈ 1.83 to 32.2 µg/mL). Besides, the MIC in [8], in test [9], in [10] and in [11] was 5 to 88 µM (≈ 1.83 to 32.2 µg/mL) throughout.
For the molecule `C#CCN1CCN(c2ccc3c4c(cccc24)C(=O)N(CC(O)Cn2c([N+](=O)[O-])cnc2C)C3=O)CC1` (stereo unspecified), the MIC in test [2] is 13 to 1020 µM; in [3], 13 to 1020 µM; in test [4] it was 13 to 1020 µM (≈ 6.53 to 513 µg/mL); in test [5], 13 to 1020 µM (≈ 6.53 to 513 µg/mL); in test [6], 13 to 1020 µM (≈ 6.53 to 513 µg/mL); in test [7], 13 to 1020 µM (≈ 6.53 to 513 µg/mL). Moreover, the minimal inhibitory concentration (MIC) in test [8], in test [9], in test [10] and in test [11] was 13 to 1020 µM (≈ 6.53 to 513 µg/mL) in each case.
`COc1ccc(C2OC(Cn3c([N+](=O)[O-])cnc3C)=NN2C(C)=O)cc1` (stereo unspecified): the MIC was in the range of 0.25 to 0.5 µg/mL (≈ 0.696 to 1.39 µM) in [12]; 0.25 to 0.5 µg/mL (≈ 0.696 to 1.39 µM) in test [13]; 0.25 to 0.5 µg/mL in test [2]; 0.25 to 0.5 µg/mL in test [3]; 0.25 to 0.5 µg/mL (≈ 0.696 to 1.39 µM) in test [14].
As to `Cc1ncc([N+](=O)[O-])n1CC(O)CN1C(=O)c2cccc3c(N4CCN(CCO)CC4)ccc(c23)C1=O` (stereo unspecified), the MIC was in the range of 13 to 1020 µM in test [2]; 13 to 1020 µM in test [3]; 13 to 1020 µM (≈ 6.61 to 519 µg/mL) in test [4]; 13 to 1020 µM (≈ 6.61 to 519 µg/mL) in test [5]; 13 to 1020 µM (≈ 6.61 to 519 µg/mL) in [6]; 13 to 1020 µM (≈ 6.61 to 519 µg/mL) in test [7]. The MIC in test [8], in test [9], in test [10] and in test [11] was 13 to 1020 µM (≈ 6.61 to 519 µg/mL) throughout.
Regarding `Cc1ncc([N+](=O)[O-])n1CC(O)CN1C(=O)c2cccc3c(N4CCOCC4)ccc(c23)C1=O` (stereo unspecified), the MIC in test [2] was in the range of 69 to 1140 µM; in test [3], 69 to 1140 µM; in test [4], 69 to 1140 µM (≈ 32.1 to 531 µg/mL); in test [5], 69 to 1140 µM (≈ 32.1 to 531 µg/mL); in test [6], 69 to 1140 µM (≈ 32.1 to 531 µg/mL); in test [7] it was 69 to 1140 µM (≈ 32.1 to 531 µg/mL). Also, the MIC in [8], in test [9], in [10] and in test [11] was 69 to 1140 µM (≈ 32.1 to 531 µg/mL) throughout.
The molecule `CCOC(=O)c1cn(CC)c2cc(N3CCN(CCn4c([N+](=O)[O-])cnc4C)CC3)c(F)cc2c1=O` displayed an ED50 in [1] of 3.5 to 13.2 mg/kg.
On to `Cc1ncc([N+](=O)[O-])n1CC(O)CN1C(=O)c2cccc3c(N4CCCC4)ccc(c23)C1=O` (stereo unspecified), for which the MIC in test [2] was in the range of 69 to 1140 µM; in test [3], 69 to 1140 µM; in [4], 69 to 1140 µM (≈ 31 to 512 µg/mL); in test [5], 69 to 1140 µM (≈ 31 to 512 µg/mL); in test [6], 69 to 1140 µM (≈ 31 to 512 µg/mL); in [7] it was 69 to 1140 µM (≈ 31 to 512 µg/mL). Also, the MIC in [8], in test [9], in test [10] and in test [11] was 69 to 1140 µM (≈ 31 to 512 µg/mL) in each case.
With `CC(=O)N1N=C(Cn2c([N+](=O)[O-])cnc2C)OC1c1ccc([N+](=O)[O-])cc1` (stereo unspecified), the MIC lay within 0.25 to 0.5 µg/mL (≈ 0.668 to 1.34 µM) in test [12]; 0.25 to 0.5 µg/mL (≈ 0.668 to 1.34 µM) in test [13]; 0.25 to 0.5 µg/mL in test [2]; 0.25 to 0.5 µg/mL in test [3]; 0.25 to 0.5 µg/mL (≈ 0.668 to 1.34 µM) in test [14].
Regarding `CC(=O)N1N=C(Cn2c([N+](=O)[O-])cnc2C)OC1(C)c1ccccc1` (stereo unspecified), the minimal inhibitory concentration (MIC) is 0.25 to 0.5 µg/mL (≈ 0.728 to 1.46 µM) in test [12]; 0.25 to 0.5 µg/mL (≈ 0.728 to 1.46 µM) in [13]; 0.25 to 0.5 µg/mL in test [2]; 0.25 to 0.5 µg/mL in test [3]; 0.25 to 0.5 µg/mL (≈ 0.728 to 1.46 µM) in [14].
Molecule `CCn1cc(C(=O)O)c(=O)c2cc(F)c(N3CCNCC3)nc21` [ENOXACIN] had a median effective dose (ED50) in test [1] of 4.22 mg/kg.
